The structures appear in SMILES notation. ≈ marks a conversion by molar mass, not a printed value.

The assay relates to Mycobacterium tuberculosis. The assay can be described thus: Antimycobacterial activity against Mycobacterium bovis BCG Pasteur incubated for 10 days by spectrophotometric based assay. It counts as functional. To be noted: variant bovis BCG, 240 h.

In the case of `O=C1c2ccccc2C(=O)N1c1ccc(S(=O)(=O)Nc2cnccn2)cc1`, the MIC99 – broadly, an inhibitory concentration at the 99% level, which refers to growth in some studies and to a panel of isolates in others – came to 1000 µM (≈ 380 µg/mL). Turning to `CCCOCOCCC(CCC1CCCC1)C(=O)O` (stereo not given), the MIC99 worked out at 500 µM (≈ 136 µg/mL). In turn, `CCCCCCCCC(CCC1CCCN1)C(=O)O` (stereo not given) returned an MIC99 of 5100 µM (≈ 1370 µg/mL).

The compound `CCCCCCCCC(COC1CCCC1)C(=O)O` (stereo not given) gave an MIC99 of 2200 µM (≈ 595 µg/mL). `CCCCCCCCC(CCC1CCCC1)C(N)=O` (stereo not given) returned an MIC99 of 5400 µM (≈ 1440 µg/mL). For the compound `O=C1c2ccccc2C(=O)N1c1ccc(S(=O)(=O)Nc2ccncn2)cc1`, the MIC99 was 1900 µM (≈ 723 µg/mL). Compound `CCCCCCCCC(CCC1=CCC=C1)C(=O)O` (stereo not given) yielded an MIC99 of 6000 µM (≈ 1590 µg/mL). `CCCCCCOCC(CCC1CCCC1)C(=O)O` (stereo not given) returned an MIC99 of 1100 µM (≈ 297 µg/mL).

`CCCCCCCCC(CCC1CCCS1)C(=O)O` (stereo not given) came in with an MIC99 of 5400 µM (≈ 1550 µg/mL).

Compound `CCCCCCCCC(CCC1CCCC1)C(=O)NCC` (stereo not given) showed an MIC99 of 4400 µM (≈ 1300 µg/mL). For `CCCCCCCCC(CCC1CCCO1)C(=O)O` (stereo not given) the value was 2500 µM (≈ 676 µg/mL); for `O=C1c2ccccc2C(=O)N1c1cnc(S(=O)(=O)Nc2ccccn2)cn1`, 900 µM (≈ 343 µg/mL); for `CCCCCCCCC(CCC1CCCC1)C(=O)OC` (stereo not given), 1500 µM (≈ 424 µg/mL).

With `O=C1c2ccccc2C(=O)N1c1ccc(S(=O)(=O)Nc2ccccn2)cn1`, the MIC99 came out at 1900 µM (≈ 723 µg/mL). `O=C(O)C(CCCCCCCF)CCC1CCCC1` (stereo not given) came in with an MIC99 of 1600 µM (≈ 436 µg/mL).

The values above are taken from ChEMBL document CHEMBL4613212, “Insights of synthetic analogues of anti-leprosy agents” (Bioorg Med Chem, 2019).
